Measurements reported in patent publication US12465618B2, “Compositions and methods for degenerative disc regeneration” (University Health Network, priority 2015, dated 2025).
Like-named read-outs stand apart in the source and are kept apart here.

What was measured:
Type in all cases: cell-based
rat NP cells [1] = assay: Western blotting of rat NP cells treated with IL-1β/TNFα with or without inhibitors or growth factors
Procedure: (§1) After euthanasia, healthy rat lumbar/caudal spine IVDs, injured tail discs and bovine caudal IVD NPs were removed aseptically and the nucleus pulposus (NP) was removed separately and enzymatically digested according to methods established by the present inventors^16. Similarly, human degenerative disc NPs were enzymatically digested using Pronase (0.4%, 1 hr at 37° C.) followed by Collagenase II treatment (0.015%, O/N, 37° C.). The following day, the cells were filtered with a 70p cell strainer and cultured within a hypoxic incubator (NuAire, MN, USA) in 3.5% O2, 5% CO2, in Advanced Dulbecco's modified Eagle's medium (ADMEM) supplemented with 8% fetal bovine serum (FBS) and penicillin and streptomycin (100 U/mL). For treatments, the cells were either cultured in serum free ADMEM (no treatment controls) or treated with interleukin-1β (IL-1β, 10 ng/mL), tumor necrosis factor-alpha (TNFα, 50 ng/mL), connective tissue growth factor (CTGF, 10-100 ng/mL), Wnt-inducible soluble protein 2 (WISP2, 10-100 ng/mL) or transforming growth factor beta 1 (TGFβ1, 5-20 ng/mL) for various time points under hypoxic conditions.
(§2) Equal amounts of whole cell or tissue lysates prepared using RIPA lysis buffer were subjected to Western blotting as described earlier^18,19. Total lysates (30 μg) were resolved on 10% sodium dodecyl sulphate-polyacrylamide gels (SDS-PAGE) under reducing conditions and then proteins were electro-transferred onto polyvinyledendifluoride (PVDF) membranes (BioRad, CA). After blocking with 5% non-fat powdered milk in Tris-buffered saline (TBS, 0.1 M, pH=7.4), blots were incubated with rabbit or goat polyclonal/mouse monoclonal primary antibodies at 4° C. overnight. […] Blots were washed three times with TTBS for 15 minutes and protein bands were detected by the enhanced chemiluminescence method (BioRad, CA) on Kodak Hyperfilm.

[2] = system: human degenerative disc NP cells; assay: Western blotting of human degenerative disc NP cells; settings: IL-1β and TNFα, Western blots, FIG. 2h
Procedure: as §1, §2

rat NP cells [3] = assay: ECM and cell adhesion molecule gene array, real time quantitative PCR; settings: 24 hrs, vs no treatment control
Procedure: To determine the effect of IL-1β and TNFα on ECM turnover, rat NP cells were treated with IL-1β alone or in combination with TNFα for 24 hrs and real time quantitative PCR was performed using the ECM and cell adhesion molecule gene arrays (includes 84 genes).
as §1
Total RNA from healthy and treated (IL-1β alone or in combination with TNFα) rat NP cells, were isolated using RNAeasy extraction kit (Cat #74134, Qiagen) and quantified using a Nanodrop spectrophotometer. Total RNA (˜400 ng) was reverse-transcribed using RT^2 First Strand Kit (Cat #330401, Qiagen) following the manufacturer's instructions for preparing cDNA. To evaluate the effect of IL-1β alone or in combination with TNFα on extra-cellular matrix (ECM) genes in rat NP cells, the RT^2 Profiler™ PCR Array Rat Extracellular Matrix & Adhesion Molecules (PARN-013Z, Qiagen) was used and compared with no treatment controls (NTC) in 3 independent experiments using real time PCR performed on ABI 7900HT 384-well Fast block machine. Data analysis including calculation of ΔΔCt values, fold changes and p-values was carried out using software available online (https://www.qiagen.com/ca). Total RNA was isolated from human degenerative disc NP cells (H1/H2) treated with CTGF, TGFβ1, CTGF+TGFβ1 to evaluate their effect on collagen 2, HAPLN1, versican and thrombospondin 1 using gene specific primers. Similarly, RNA was isolated from human NP cells were treated with […] alone or in combination TNFα in presence of CTGF and TGFβ1 to determine their effect on Cox2 and MMP-13 expression using qRT-PCR.

[4] = rat NP cells treated with IL-1β and TNFα, Western blot, FIG. 2f-2g

With `C[S+]([O-])c1ccc(-c2nc(-c3ccncc3)c(-c3ccc(F)cc3)[nH]2)cc1` (stereo not shown) [SB203580] the “MMP-3, MMP-13 and Cox2 expression in presence of inhibitor” value (rat NP cells [1]; IL-1β treated rat NP cells, Western blot, FIG. 2f) was “reduced expression” and the “cytokine induced Cox2 expression in presence of inhibitor” value [2] was “decreased expression”.

`COC[C@H]1OC(=O)c2coc3c2[C@@]1(C)C1=C(C3=O)[C@@H]2CCC(=O)[C@@]2(C)C[C@H]1OC(C)=O` [Wortamanin] was tested, and the “IL-1β and TNFα induced MMP-3, MMP-13 and Cox2 expression in presence of inhibitor” value (rat NP cells [1]; [4]) was “reduced expression of MMP-3 and MMP-13 only”.

With “IL1β: Human recombinant pro-inflammatory cytokine interleukin-1 beta, purchased from Peprotech, used at 10 ng/mL” the “Fold regulation (IL1β vs NTC), gene Adamts8” value (rat NP cells [3]) was 139.39, the “Fold regulation (IL1β vs NTC), gene Cd44” value (rat NP cells [3]) was 23.57 and the “Fold regulation (IL1β vs NTC), gene Cdh3” value (rat NP cells [3]) was −6.18. For the same molecule, the “Fold regulation (IL1β vs NTC), gene Col3a1” value (rat NP cells [3]) was −3.80, the “Fold regulation (IL1β vs NTC), gene Col4a1” value (rat NP cells [3]) was 4.24 and the “Fold regulation (IL1β vs NTC), gene Col4a2” value (rat NP cells [3]) was 3.20. For the same molecule, the “Fold regulation (IL1β vs NTC), gene Ctgf” value (rat NP cells [3]) was −2.40, the “Fold regulation (IL1β vs NTC), gene Emilin1” value (rat NP cells [3]) was 4.42 and the “Fold regulation (IL1β vs NTC), gene Hapln1” value (rat NP cells [3]) was −6.01. For the same molecule, the “Fold regulation (IL1β vs NTC), gene Icam1” value (rat NP cells [3]) was 6.56, the “Fold regulation (IL1β vs NTC), gene Itga3” value (rat NP cells [3]) was 9.22 and the “Fold regulation (IL1β vs NTC), gene Itga5” value (rat NP cells [3]) was 6.23. For the same molecule, the “Fold regulation (IL1β vs NTC), gene Itgav” value (rat NP cells [3]) was 2.14, the “Fold regulation (IL1β vs NTC), gene Lamc1” value (rat NP cells [3]) was 4.24 and the “Fold regulation (IL1β vs NTC), gene MMP3” value (rat NP cells [3]) was 68.04. The “Fold regulation (IL1β vs NTC), gene MMP9” value (rat NP cells [3]) was 1252.77, the “Fold regulation (IL1β vs NTC), gene MMP13” value (rat NP cells [3]) was 36.82 and the “Fold regulation (IL1β vs NTC), gene Mmp11” value (rat NP cells [3]) was −3.86. For the same molecule, the “Fold regulation (IL1β vs NTC), gene Ncam1” value (rat NP cells [3]) was −2.00, the “Fold regulation (IL1β vs NTC), gene Thbs1” value (rat NP cells [3]) was −3.35 and the “Fold regulation (IL1β vs NTC), gene Thbs2” value (rat NP cells [3]) was −4.14. The “Fold regulation (IL1β vs NTC), gene Timp1” value (rat NP cells [3]) was 5.04 and the “phosphorylation levels of c-Raf (S259), p42/44 (Thr202/Tyr204) and p38MAPK (Thr180/Tyr182)” value (rat NP cells [1]; rat NP cells, 5-60 minutes, no significant change in total protein) was “increased phosphorylation levels”.

`N#CC(=C(/N)Sc1ccccc1N)/C(C#N)=C(\N)Sc1ccccc1N` [U0126] was tested, and the “IL-1β and TNFα induced MMP-3, MMP-13 and Cox2 expression in presence of inhibitor” value (rat NP cells [1]) was “failed to induce”.

`Cc1ccc(S(=O)(=O)/C=C/C#N)cc1` [BAY-11-7082] was tested, and the “IL-1β and TNFα induced MMP-3, MMP-13 and Cox2 expression in presence of inhibitor” value (rat NP cells [1]; [4]) was “Reduced expression” and the “cytokine induced Cox2 expression in presence of inhibitor” value [2] was “decreased expression”.

With `C[C@H](NC(=O)/C(C#N)=C/c1cccc(Br)n1)c1ccccc1` [STAT3 inhibitor] the “IL-1β and TNFα induced MMP-3, MMP-13 and Cox2 expression in presence of inhibitor” value (rat NP cells [1]; [4]) was “Reduced expression” and the “cytokine induced Cox2 expression in presence of inhibitor” value [2] was “decreased expression”.
